This is an account of results in patent US9095585B2, “Bioavailable compositions of amorphous piperidinyl compounds” (Bristol-Myers Squibb Company, priority 2011, dated 2015).

This data set can be described thus: Physicochemical properties of Compound I (ionization, aqueous solubility).

As for `CC(C)[C@@H](NC(=O)NCC(C)(C)O)C(=O)N1CC[C@](O)(c2ccc(Cl)cc2)C(C)(C)C1` [Compound I], the ionization result (pH range of 2-11) is reported as “non-ionizable”. Further, the aqueous solubility entry (room temperature) was “low”.
